{"source": "patent US20040002537A1", "about": "“Use of statins in the treatment of autoimmune disease” (priority 2002, published 2004)", "key": {"[1]": {"tested_on": "MOG p35-55-induced EAE in C57BL/6 mice", "assay": "MOG p35-55-induced chronic EAE, oral atorvastatin", "format": "in vivo, mouse", "conditions": "daily oral"}, "[2]": {"tested_on": "PLP p139-151-induced EAE in SJL/J mice", "assay": "PLP p139-151-induced relapsing EAE, oral atorvastatin", "format": "in vivo, mouse"}, "[3]": {"tested_on": "MBP Ac1-11-induced EAE in MBP Ac1-11 Tg mice", "assay": "MBP Ac1-11-induced acute EAE, oral atorvastatin", "format": "in vivo, mouse", "conditions": "FIG. 1E"}, "[4]": {"tested_on": "PLP p139-151-stimulated spleen cells", "procedure": "Ag Specific Ex-vivo T Cell Proliferation Assay. […] Lymph node cells (LNCs) or splenocytes were cultured in vitro for specific proliferative response to the specific encephalogenic peptide (PLP 139-151, MOG 35-55 or MBP Ac1-11, respectively). LNCs were prepared in 96-well microtiter plates in a volume of 0.2 ml/well at a concentration of 5×10^6 cells/ml. The culture medium consisted of enriched RPMI (RPMI 1640 supplemented with L-glutamine [2 mM], sodium pyruvate [1 mM], nonessential amino acids [0.1 mM], penicillin [100 U/ml], streptomycin [0.1 mg/ml], 2-ME [5×10^−5 M]) supplemented with 1% autologous fresh normal mouse serum with the addition of different peptides concentrations. Cultures were incubated in 37° C. in humidified air containing 5% CO2. Cultures taken from SJL/J or C57BL/6 mice were incubated for 72h whereas cultures from MBPAc-1-11 Tg mice were incubated for 48 hours and then were pulsed for 18 hr with 1 μCi/well of [^3H] thymidine. The cells were then harvested and counted in a β counter."}, "[5]": {"tested_on": "Th1/Th2 cytokines (IL-2, IFN-γ, IL-4, IL-10)", "assay": "Cytokine profile determination by ELISA, ex vivo lymph node and spleen cells", "format": "in vivo, mouse", "procedure": "Cytokine Profile Determination. Lymph node cells and spleen cells from EAE donors were stimulated in vitro (2.5×10^6 cells/ml) in 24-well plates with or without the encephalogenic peptide or with […] as positive control. Cell culture supernatants were collected at different time points for measurements of cytokine levels: 48 hours for IL-2 , 72 hours for IFN-γ and TNF α, and 120 hours for […]. Cytokine levels were determined using specific ELISA kits for the corresponding cytokines according to the manufacturer's protocols (PharMingen, San Diego, Calif., USA)."}, "STAT6 [6]": {"tested_on": "STAT6", "assay": "Western blot for STAT6 phosphorylation in draining lymph node cells of treated mice", "format": "in vivo, mouse", "conditions": "SJL/J mice, 1 mg/kg and 10 mg/kg oral, 10 days after EAE induction, FIG. 5 lanes 2 and 3", "procedure": "(§1) Western Blot Analysis for STAT-6 and STAT-4 Phosphorylation. Western Blot analysis was performed as described in Garren et al. (2001) Immunity 15:15, with minor modifications. Lymph nodes from control and atorvastatin-treated mice were homogenized in T-PER protein extraction buffer (Pierce,), with 20 μg/ml aprotinin, 20 μg/ml leupeptin, 1.6 mM Pefablock SC (Roche), 10 mM NaF, 1 mM Na3VO4 and 1 mM Na4P2O7 (Sigma, St. Louis, Mo.). All procedures were handled on ice. As a positive control, lymph node cells from naive mice were isolated and cultured for one hour with mouse recombinant IL-4 (10 ng/ml) or INF-γ (100 units/ml), for STAT6 and STAT4 expression respectively. Protein concentrations were determined by BCA protein assay (Pierce). Lysate was added to 3×SDS loading buffer (Cell Signaling Technology) with 40 mM DTT. Products were separated by electrophoresis on a 4-15% SDS-PAGE gradient gel (BioRad). Pre-stained markers (Invitrogen) were used to determine MW. Gels were blotted to PVDF membranes at 100 V in 25 mM Tris, 192 mM glycine and 20% (v/v) methanol, then blocked 1 hr at RT with Tris-buffered saline (TBS) containing 0.1% Tween-20 and 5% nonfat dry milk. […]"}, "MHC II": {"tested_on": "MHC II", "conditions": "through the effect on the CIITA p IV gene; cited from earlier work"}, "microglia and astrocytes": {"tested_on": "microglia and astrocytes", "conditions": "cited from earlier work"}, "STAT6 [7]": {"tested_on": "STAT6", "assay": "Western blot for STAT6 phosphorylation, naive lymph node cells cultured with IL-4 (positive control)", "format": "cell-based, mouse", "conditions": "10 ng/ml for one hour, FIG. 5 lane 4", "procedure": "as §1"}}, "data": [{"molecule": "CC(C)c1c(C(=O)Nc2ccccc2)c(-c2ccccc2)c(-c2ccc(F)cc2)n1CC[C@@H](O)C[C@@H](O)CC(=O)O", "note": "[atorvastatin]", "values": [{"measurement": "EAE clinical score, treatment starting at EAE onset", "setting": "[1]; C57Bl/6 female mice, 1 mg/kg or 10 mg/kg, FIG. 1A", "result": "suppressed EAE induction"}, {"measurement": "EAE clinical score, treatment after onset", "setting": "[1]; C57Bl/6 mice, FIG. 1B", "result": "ameliorated EAE"}, {"measurement": "Ongoing relapsing EAE, treatment begun after recovery from acute EAE", "setting": "[2]; FIG. 1D", "result": "reversal of ongoing relapsing EAE"}, {"measurement": "Prevention of relapsing EAE", "setting": "[2]; treatment at onset, FIG. 1C", "result": "effective in prevention of relapsing EAE"}, {"measurement": "Acute EAE progression", "setting": "[3]", "result": "successfully prevented acute EAE progression"}, {"measurement": "PLP p139-151-specific proliferative responses (3H-thymidine incorporation)", "setting": "[4]; cells from SJL/J mice treated with 1 or 10 mg/kg, FIG. 4A", "result": "suppressed in a dose-related fashion"}, {"measurement": "Cell death in the in vitro cultures", "setting": "[4]; lymphocytes from treated mice", "result": "not observed increased cell death"}, {"measurement": "Th2 bias (proliferation and cytokines) in other strains", "setting": "[5]; C57BL/6 and MBP Ac1-11-specific transgenic mice", "result": "almost identical Th2 bias"}, {"measurement": "Secretion of IL-10", "setting": "[5]; SJL/J mice, 10 mg/kg, ELISA, FIG. 4E", "result": "observed at the higher treatment dose"}, {"measurement": "Production of IL-2", "setting": "[5]; SJL/J mice, 1 and 10 mg/kg, ELISA, FIG. 4B", "result": "reduced, although to a much greater extent in mice treated with 10 mg/kg"}, {"measurement": "Secretion of IFN-γ", "setting": "[5]; SJL/J mice, both treatment doses (1 and 10 mg/kg), ELISA, FIG. 4C", "result": "dramatic reduction"}, {"measurement": "IL-4 secretion", "setting": "[5]; SJL/J mice, both treatment doses (1 and 10 mg/kg), ELISA, FIG. 4D", "result": "induced at both treatment doses"}, {"measurement": "Phosphorylated STAT6 in lymph nodes (Western blot)", "setting": "STAT6 [6]", "result": "phosphorylated STAT6 is seen"}, {"measurement": "Expression of MHC II", "setting": "MHC II", "result": "could inhibit the expression of MHC II"}]}, {"molecule": "CC[C@H](C)C(=O)O[C@H]1C[C@@H](C)C=C2C=C[C@H](C)[C@H](CC[C@@H]3C[C@@H](O)CC(=O)O3)[C@H]21", "note": "[lovastatin]", "values": [{"measurement": "Production of iNOS and proinflammatory cytokines (TNFα, IL-1β and IL-6)", "setting": "microglia and astrocytes", "result": "inhibited production"}]}, {"molecule": "mouse recombinant IL-4: mouse recombinant IL-4 (10 ng/ml), positive control for STAT6 phosphorylation (protein, UniProt P07750 21-140, looked up) Interleukin-4: HIHGCDKNHLREIIGILNEVTGEGTPCTEMDVPNVLTATKNTTESELVCRASKVLRIFYLKHGKTPCLKKNSSVLMELQRLFRAFRCLDSSISCTMNESKSTSLKDFLESLKSIMQMDYS", "values": [{"measurement": "Phosphorylated STAT6 in naive lymph node cells (Western blot)", "setting": "STAT6 [7]", "result": "phosphorylated STAT6 is seen"}]}]}
